From patent US20250270170A1, “2,3-DIMETHOXY-5-METHYL-1,4-BENZOQUINONE ALKYL ALCOHOL DERIVATIVE AND USE THEREOF” (BEIJING ANJIANXI BIO-MEDICAL TECHNOLOGY CO., LTD., priority 2021, published 2025)

Experiments:
[1] = Example 8: body weight of ECA109 tumor-bearing mice; assay type: in vivo, nude mice; conditions: DDP 5 mg/kg i.p. QW×4
Source text: The assay animals, calculation of tumor volume (TV), end of assay, data recording, calculation formula of tumor growth inhibition rate TGI (%), and statistical analysis method were the same as those in Example 3; the preparation of the administration formulation of the compound of formula (I) was the same as that in Example 5. […] The cells were pipetted with a pipette to disperse them evenly, and the cells were put into a 50-mL centrifuge tube, which was placed in an ice box. A 1-mL syringe was used to draw the cell suspension, which was injected subcutaneously into the axilla of the front right limb of a […]. Each animal was inoculated with 200 μL (1.0×10^7 cells/mouse) to establish an ECA109 transplanted tumor model in nude mice. After the inoculation, the animal status and tumor growth were regularly observed, and the tumor diameter was measured using an electronic vernier caliper. The data were input into an Excel spreadsheet to calculate the tumor volume. When the tumor volume reached 100 to 300 mm^3, animals in good health and with similar tumor volumes were selected and divided into groups using randomized block method. The day of grouping was regarded as the first day of the assay (D1). After the start of the assay, the tumor diameter was measured twice a week, the tumor volume was calculated, and the animal body weight was also weighed and recorded. [table]

[2] = Example 8: serum UREA at the end of the assay; assay type: in vivo, nude mice; conditions: DDP 5 mg/kg i.p. QW×4
Source text: The assay animals, calculation of tumor volume (TV), end of assay, data recording, calculation formula of tumor growth inhibition rate TGI (%), and statistical analysis method were the same as those in Example 3; the preparation of the administration formulation of the compound of formula (I) was the same as that in Example 5. [table]

NCI-H460 cells = test: Flow cytometry for cell cycle detection, NCI-H460; assay type: cell-based, human
Description: (1) Cells were inoculated in a 6-well plate. When about 50% of the cells were adherent and fused, the compound of formula (I) at a concentration of 0 μM, 10 μM, 30 μM, and 90 μM were added, respectively. The plate was placed in an incubator at 37° C. with 5% CO2 to continue culturing, and three time points were set, which were 24 h, 48 h and 72 h, respectively.
(2) After reaching the designated time point, the cell culture plate was taken out from the incubator, and placed in a biological safety cabinet. A 4 ml centrifuge tube was taken and marked. The supernatant in each well was pipetted out and added to the corresponding 4 ml centrifuge tube. The cells were gently washed with PBS, and the PBS was added to the corresponding centrifuge tube. An appropriate amount of trypsin was added to each well to digest the cells. When the cells were digested to a moderate degree, the old culture medium from the centrifuge tube was added to the corresponding well. The cells were gently pipetted with apipette to form a single-cell suspension, which was pipetted back into the original centrifuge tube. The tube was immediately centrifuged at 1500 rpm for 5 minutes. Then, the supernatant was discarded and the precipitate was retained.
(3) 2 ml of pre-chilled PBS was added to the centrifuge tube, and centrifuged again at 1500 rpm for 5 minutes. The supernatant was discarded, and the cell debris was removed.
(4) 1 ml of 75% ethanol was added while pipetting the cells, to make the cells appear as single as possible. Then, the cells were fixed at 4° C. overnight or stored at −20° C. for long-term storage (can be stored for 1 week).
(5) The fixed cells were taken out, and centrifuged at 1000 rpm for 5 minutes. The ethanol was discarded, and pre-chilled PBS was added to wash the cells. Then, the cells were centrifuged at 1000 rpm for 5 min to remove the residual ethanol on the cells.
(6) A cell cycle detection kit from Wuhan Promoter Biology Co., Ltd. was used. 100 μl of RNaseA was added, and incubated in a 37° C. water bath for 30 minutes.
(7) 400 μl of PI was added and mixed well, and incubated at 4° C. in dark for 30 minutes.
(8) The cell cycle was detected by upflow cytometry.

A549 cells = test: CCK-8 cell proliferation assay, A549; assay type: cell-based; conditions: Homo sapiens
Description: (1) Cells in the logarithmic growth phase were taken and digested to make a cell suspension. 20 μl of the cell suspension was taken with a pipette, and added to a CountStar disposable cell counting plate for cell counting, and the counting results were recorded. The cell concentration was adjusted to 30,000 to 40,000 cells/ml (note: different cells have different growth rates, so the number of cells in each well was slightly different).
(2) A 96-well plate was taken. Since the wells in the outermost circle of the culture plate were easy to evaporate and dry, causing inaccurate volumes, and increasing errors, 100 μl of PBS was added to the wells in the outermost circle, which were not used as assay wells.
(3) The adjusted cell suspension was added to the 96-well plate, with 100 μl in each well, resulting approximately 3000 to 4000 cells in each well. The plate was placed in a 37° C. incubator under the condition of 5% CO2 for cell culture, and the drug was added when the cells adhered to the wall.
(4) Drug dilution. The concentration gradient was set as: 0 μM, 10 μM, 50 μM, 100 μM, and 200 μM, with 3 duplicates for each concentration. In addition, blank control wells containing only culture medium and drug without cells were also set.
(5) The plate was incubated in the incubator for 24 h, 48 h and 72 h, respectively. After reaching the set time point, the 96-well plate was taken out from the incubator, and 10 μl of CCK-8 reagent was added to each well, taking care to avoid bubbles. The plate was shaked to mix evenly, and put back into the incubator to culture for another 2 hours.
(6) To detect the absorbance, the 96-well plate was placed in a […], and the absorbance value (OD value) at 450 nm was detected. The data was recorded. Cell viability=(OD value of the assay well−OD value of the blank control well)/(OD value of the solvent control well−OD value of the blank control well)×100%.
(7) The data was imported into GraphPad Prism5 for plotting. The IC50 values were calculated, and the curves were drawn.

## N.N.[Cl][Pt][Cl] [DDP, cisplatin]
[1]; D1
  Mean animal body weight: 20.8 ± 0.4 g
[1]; D5
  Mean animal body weight: 20.3 ± 0.6 g
  body weight loss rate: (2.1%)
[1]; D8
  Mean animal body weight: 20.5 ± 0.4 g
  body weight loss rate: (1.4%)
[1]; D12
  Mean animal body weight: 19.4 ± 0.4 g
  body weight loss rate: (6.7%)
[1]; D15
  Mean animal body weight: 19.9 ± 0.3 g
  body weight loss rate: (4.3%)
[1]; D19
  Mean animal body weight: 19.0 ± 0.3 g
  body weight loss rate: (8.5%)
[1]; D22
  Mean animal body weight: 19.5 ± 0.4 g
  body weight loss rate: (5.9%)
[1]; D26
  Mean animal body weight: 17.7 ± 0.3 g
  body weight loss rate: (15%)
[1]; D29
  Mean animal body weight: 17.9 ± 0.3 g
  body weight loss rate: (14%)
[1]; D33
  Mean animal body weight: 18.7 ± 0.4 g
  body weight loss rate: (10%)
[1]; D36
  Mean animal body weight: 18.7 ± 0.3 g
  body weight loss rate: (10%)
[2]
  Serum UREA Mean ± SE: 13.43 ± 1.04 mmol/L

## COC1=C(OC)C(=O)C(CCCCCCCCCCOC(=O)Cc2c(C)n(C(=O)c3ccc(Cl)cc3)c3ccc(OC)cc23)=C(C)C1=O [compound of formula (I)]
NCI-H460 cells; 10 μM, 24 h
  proportion of S phase cells: 26.03%
NCI-H460 cells; 10 μM, 48 h
  proportion of S phase cells: 29.62%
NCI-H460 cells; 10 μM, 72 h
  proportion of S phase cells: 21.61%
NCI-H460 cells; 30 μM, 24 h
  proportion of S phase cells: 13.15%
NCI-H460 cells; 30 μM, 48 h
  proportion of S phase cells: 16.02%
NCI-H460 cells; 30 μM, 72 h
  proportion of S phase cells: 20.98%
NCI-H460 cells; 90 μM, 24 h
  proportion of S phase cells: 9.76%
NCI-H460 cells; 90 μM, 48 h
  proportion of S phase cells: 0.97%
NCI-H460 cells; 90 μM, 72 h
  proportion of S phase cells: 3.36%
A549 cells; 24 h
  IC50: 213.2 ± 1.22 µM
A549 cells; 48 h
  IC50: 55.5 ± 1.84 µM
A549 cells; 72 h
  IC50: 39.7 ± 0.98 µM
